Laboratory results from US20250361230A1, “LATS Inhibitors and Uses Thereof” (The USA, as Represented by the Secretary, Dept. of Heath …, priority 2022, published 2025).

Experiments:
Assay type in all cases: biochemical
[1] = target: T1, LATS1 (Homo sapiens, UniProt O95835); experiment: RBC HotSpot kinase assay (33P-ATP, P81 filter-binding), LATS1; details: Table 28, biochemical kinase assay; read-out: LATS1 IC50
T1 sequence (O95835 1-1130): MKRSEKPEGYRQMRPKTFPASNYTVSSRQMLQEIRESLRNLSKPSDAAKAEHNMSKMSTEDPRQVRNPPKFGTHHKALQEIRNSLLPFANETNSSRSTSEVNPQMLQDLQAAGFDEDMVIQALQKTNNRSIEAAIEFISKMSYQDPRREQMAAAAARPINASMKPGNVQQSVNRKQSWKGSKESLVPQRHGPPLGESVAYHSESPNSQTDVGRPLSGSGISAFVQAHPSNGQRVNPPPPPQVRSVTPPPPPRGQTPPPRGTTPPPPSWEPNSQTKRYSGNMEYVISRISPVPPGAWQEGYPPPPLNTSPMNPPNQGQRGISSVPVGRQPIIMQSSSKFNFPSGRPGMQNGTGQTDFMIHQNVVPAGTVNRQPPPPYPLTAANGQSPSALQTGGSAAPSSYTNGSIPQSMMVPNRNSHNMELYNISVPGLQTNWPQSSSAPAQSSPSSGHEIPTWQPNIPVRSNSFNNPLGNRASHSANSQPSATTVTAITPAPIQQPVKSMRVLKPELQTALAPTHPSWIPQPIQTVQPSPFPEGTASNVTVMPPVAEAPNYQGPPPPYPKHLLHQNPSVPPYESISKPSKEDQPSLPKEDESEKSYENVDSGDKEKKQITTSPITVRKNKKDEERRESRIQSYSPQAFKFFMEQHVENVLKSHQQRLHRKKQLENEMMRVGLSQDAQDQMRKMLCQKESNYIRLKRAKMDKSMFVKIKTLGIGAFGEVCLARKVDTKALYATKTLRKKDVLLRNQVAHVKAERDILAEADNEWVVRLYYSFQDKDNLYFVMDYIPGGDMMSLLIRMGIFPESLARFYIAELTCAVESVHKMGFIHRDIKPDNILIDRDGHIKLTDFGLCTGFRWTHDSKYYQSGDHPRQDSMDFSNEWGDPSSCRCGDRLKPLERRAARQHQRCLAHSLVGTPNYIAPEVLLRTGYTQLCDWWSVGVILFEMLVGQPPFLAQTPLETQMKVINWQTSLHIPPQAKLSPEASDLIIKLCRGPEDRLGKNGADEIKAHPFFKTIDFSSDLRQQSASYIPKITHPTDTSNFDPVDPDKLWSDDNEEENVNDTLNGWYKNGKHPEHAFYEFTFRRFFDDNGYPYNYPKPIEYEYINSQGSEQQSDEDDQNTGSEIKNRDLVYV
Outline: (§1)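 Hepes pH 7.5/MgCl2/EGTA/Brij35/BSA/Na3VO4/DTT buffer, cofactors per kinase; cpd acoustically dispensed, 20 min preinc RT; start w/ 33P-ATP, 2 h RT; P81 filter readout; 10-pt singlet IC50.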

[2] = target: T2, LATS2 (Homo sapiens, UniProt Q9NRM7); experiment: RBC HotSpot kinase assay (33P-ATP, P81 filter-binding), LATS2; details: Table 28, biochemical kinase assay; read-out: LATS2 IC50
T2 sequence (Q9NRM7 1-1088): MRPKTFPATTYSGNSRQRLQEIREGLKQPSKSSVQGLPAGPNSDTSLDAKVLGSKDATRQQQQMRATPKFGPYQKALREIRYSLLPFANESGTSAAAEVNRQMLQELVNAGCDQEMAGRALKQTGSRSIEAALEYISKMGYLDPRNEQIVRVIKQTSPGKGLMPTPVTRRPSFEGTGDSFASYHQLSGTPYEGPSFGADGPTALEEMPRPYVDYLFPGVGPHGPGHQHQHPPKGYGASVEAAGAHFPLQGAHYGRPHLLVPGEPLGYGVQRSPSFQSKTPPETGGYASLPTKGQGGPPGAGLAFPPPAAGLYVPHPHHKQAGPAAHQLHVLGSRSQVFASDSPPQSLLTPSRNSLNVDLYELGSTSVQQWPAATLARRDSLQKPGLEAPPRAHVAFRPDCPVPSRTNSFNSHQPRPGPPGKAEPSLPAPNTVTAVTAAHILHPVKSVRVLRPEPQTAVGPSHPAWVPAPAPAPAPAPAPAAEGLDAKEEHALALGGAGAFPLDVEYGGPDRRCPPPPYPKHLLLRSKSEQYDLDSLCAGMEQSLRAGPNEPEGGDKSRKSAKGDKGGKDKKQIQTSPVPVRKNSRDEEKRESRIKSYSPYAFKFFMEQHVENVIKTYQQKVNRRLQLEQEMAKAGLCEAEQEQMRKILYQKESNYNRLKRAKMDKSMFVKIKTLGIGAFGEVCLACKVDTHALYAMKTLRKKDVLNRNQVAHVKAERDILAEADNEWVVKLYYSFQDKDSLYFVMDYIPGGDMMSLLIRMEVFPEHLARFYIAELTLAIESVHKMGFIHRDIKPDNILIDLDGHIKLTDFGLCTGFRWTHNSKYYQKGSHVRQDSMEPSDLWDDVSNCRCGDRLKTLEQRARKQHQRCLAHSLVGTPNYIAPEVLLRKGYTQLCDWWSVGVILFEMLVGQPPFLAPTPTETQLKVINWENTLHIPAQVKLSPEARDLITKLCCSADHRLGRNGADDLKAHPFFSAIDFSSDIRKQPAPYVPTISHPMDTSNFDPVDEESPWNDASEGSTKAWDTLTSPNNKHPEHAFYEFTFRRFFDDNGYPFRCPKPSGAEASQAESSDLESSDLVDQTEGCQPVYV
Outline: as §1

[3] = target: AKT (Homo sapiens, UniProt P31749); experiment: RBC HotSpot kinase assay (33P-ATP, P81 filter-binding), AKT; details: Table 28, biochemical kinase assay; read-out: AKT IC50
Sequence of AKT (P31749 whole entry): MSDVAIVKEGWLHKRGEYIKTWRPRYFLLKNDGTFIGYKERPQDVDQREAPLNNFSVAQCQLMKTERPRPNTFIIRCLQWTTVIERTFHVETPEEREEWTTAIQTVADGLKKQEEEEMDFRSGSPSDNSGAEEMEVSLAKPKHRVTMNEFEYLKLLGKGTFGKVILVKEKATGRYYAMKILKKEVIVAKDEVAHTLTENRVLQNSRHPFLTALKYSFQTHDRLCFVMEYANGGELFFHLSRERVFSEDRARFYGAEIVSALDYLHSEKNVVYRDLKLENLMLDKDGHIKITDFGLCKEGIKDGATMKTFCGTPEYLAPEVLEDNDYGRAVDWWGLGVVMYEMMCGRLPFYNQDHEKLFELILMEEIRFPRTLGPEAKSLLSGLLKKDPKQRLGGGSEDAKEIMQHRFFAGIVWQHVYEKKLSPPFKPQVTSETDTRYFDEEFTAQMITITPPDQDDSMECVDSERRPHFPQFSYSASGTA
Outline: as §1

Row | IC50 [1] [nM] | IC50 [2] [nM] | IC50 [3] [nM] | SMILES
1 | 9.5 | 31.8 | 437 | CC(C)(N)c1ccc(-c2ccnc3[nH]ccc23)cc1Cl [Compound 205, 2-(2-chloro-4-(1H-pyrrolo[2,3-b]pyridin-4-yl)phenyl)propan-2-amine]
2 | 10.2 | 74.9 | 1620 | CC(C)(N)c1ccc(-c2ccnc3[nH]ccc23)cc1-c1ccccc1 [Compound 206, 2-(5-(1H-pyrrolo[2,3-b]pyridin-4-yl)-[1,1′-biphenyl]-2-yl)propan-2-amine]
3 | 4 | 9.6 | 267 | CC(C)(N)c1ccc(-c2ccnc3[nH]cc(Br)c23)cc1-c1ccccc1 [Compound 207, 2-(5-(3-bromo-1H-pyrrolo[2,3-b]pyridin-4-yl)-[1,1′-biphenyl]-2-yl)propan-2-amine]
4 | 8.3 | 15 | 349 | CN(C)C(C)(C)c1ccc(-c2ccnc3[nH]cc(F)c23)cc1 [Compound 208, 2-(4-(3-fluoro-1H-pyrrolo[2,3-b]pyridin-4-yl)phenyl)-N,N-dimethylpropan-2-amine]
5 | 43 | 146 | 1250 | CN(C)C(C)(C)c1ccc(-c2ccnc3[nH]ccc23)cc1 [Compound 209, 2-(4-(1H-pyrrolo[2,3-b]pyridin-4-yl)phenyl)-N,N-dimethylpropan-2-amine]
6 | 24 | 4.7 | 331 | CC(C)(N)c1ccc(-c2ccnc3[nH]cc(Br)c23)cc1 [Compound 210, 2-(4-(3-bromo-1H-pyrrolo[2,3-b]pyridin-4-yl)phenyl)propan-2-amine]
7 | 12 | 13 | 1250 | COC(=O)c1c[nH]c2nccc(-c3ccc(C(C)(C)N)cc3)c12 [Compound 212, methyl 4-(4-(2-aminopropan-2-yl)phenyl)-1H-pyrrolo[2,3-b]pyridine-3-carboxylate]
8 | 7.7 | 14.7 | 832 | COC(=O)c1c[nH]c2nccc(-c3ccc(CN)c(C)c3)c12 [Compound 213, methyl 4-(4-(aminomethyl)-3-methylphenyl)-1H-pyrrolo[2,3-b]pyridine-3-carboxylate]
9 | 11 | 24 | 986 | COC(=O)c1c[nH]c2nccc(-c3ccc(CN)c(-c4ccccc4)c3)c12 [Compound 214, methyl 4-(6-(aminomethyl)-[1,1′-biphenyl]-3-yl)-1H-pyrrolo[2,3-b]pyridine-3-carboxylate]
10 | 4.7 | 15 | 2840 | Cc1cc(-c2ccnc3[nH]cc(F)c23)ncc1CN [Compound 215, (6-(3-fluoro-1H-pyrrolo[2,3-b]pyridin-4-yl)-4-methylpyridin-3-yl)methanamine]
11 | 11 | 19 | 823 | COC(=O)c1c[nH]c2nccc(-c3ccc(CN)c(Cl)c3)c12 [Compound 216, methyl 4-(4-(aminomethyl)-3-chlorophenyl)-1H-pyrrolo[2,3-b]pyridine-3-carboxylate]
12 | 8.2 | 12 | 3160 | Cc1cc(-c2ccnc3[nH]ccc23)ncc1CN [Compound 217, (4-methyl-6-(1H-pyrrolo[2,3-b]pyridin-4-yl)pyridin-3-yl)methanamine]
13 | 37 | 130 | 4930 | NCc1ccc(-c2ccnc3[nH]ccc23)nc1 [Compound 218, (6-(1H-pyrrolo[2,3-b]pyridin-4-yl)pyridin-3-yl)methanamine]
14 | 236 | 115 | 1010 | CC(C)c1c[nH]c2nccc(-c3ccc(CN)c(-c4ccccc4)c3)c12 [Compound 220, (5-(3-isopropyl-1H-pyrrolo[2,3-b]pyridin-4-yl)-[1,1′-biphenyl]-2-yl)methanamine]
15 | 16 | 31 | 470 | Cc1cc(-c2ccnc3[nH]cc(F)c23)cc(C)c1CN [Compound 222, (4-(3-fluoro-1H-pyrrolo[2,3-b]pyridin-4-yl)-2,6-dimethylphenyl) methanamine]
16 | 73 | 35 | 1150 | C=C(C)c1c[nH]c2nccc(-c3ccc(CN)c(-c4ccccc4)c3)c12 [Compound 224, (5-(3-(prop-1-en-2-yl)-1H-pyrrolo[2,3-b]pyridin-4-yl)-[1,1′-biphenyl]-2-yl)methanamine]
17 | ≥ 10000 | 6420 | > 10000 | NCc1ccc(-c2cc(N)nc3[nH]ccc23)cc1 [Compound 225, 4-(4-(aminomethyl)phenyl)-1H-pyrrolo[2,3-b]pyridin-6-amine]
18 | 25.4 | 1.2 | 734 | CC(C)(N)c1ccc(-c2ccnc3[nH]ccc23)cc1 [Compound 226, 2-(4-(1H-pyrrolo[2,3-b]pyridin-4-yl)phenyl)propan-2-amine]
19 | 124 | 49.3 | 3670 | NCc1ccc(-c2ccnc3[nH]cc(-c4cccc(C(F)(F)F)c4)c23)cc1 [Compound 227, (4-(3-(3-(trifluoromethyl)phenyl)-1H-pyrrolo[2,3-b]pyridin-4-yl)phenyl) methanamine]
20 | 34 | 14 | 1020 | NCc1ccc(-c2ccnc3[nH]cc(-c4cccc(Cl)c4)c23)cc1 [Compound 228, (4-(3-(3-chlorophenyl)-1H-pyrrolo[2,3-b]pyridin-4-yl)phenyl) methanamine]
21 | 235 | 235 | 6340 | Cc1ccccc1-c1c[nH]c2nccc(-c3ccc(CN)cc3)c12 [Compound 229, (4-(3-(o-tolyl)-1H-pyrrolo[2,3-b]pyridin-4-yl)phenyl) methanamine]
22 | 24 | 144 | 437 | COCCNc1cc(-c2ccnc3[nH]ccc23)ccc1CN [Compound 231, 2-(aminomethyl)-N-(2-methoxyethyl)-5-(1H-pyrrolo[2,3-b]pyridin-4-yl)aniline]
23 | 3.3 | 11.6 | 60.5 | CC(C)c1cc(-c2ccnc3[nH]cc(Cl)c23)ccc1CN [Compound 232, (4-(3-chloro-1H-pyrrolo[2,3-b]pyridin-4-yl)-2-isopropylphenyl) methanamine]
